Test systems include ACHN renal; HCC-2998 colon; HCT-116 colon; LOX IMVI melanoma; MDA-MB-435; OVCAR-3 ovarian; OVCAR-5 ovarian; SW-620 colon; TK-10 renal; UACC-257 melanoma.
Holding throughout (assay): inhibition of tumour cell growth, NCI panel, 48 h

Several values for one entry are separate records, joined by “and”; a condition that tells them apart may be missing. Equal values may be shown once.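 Compound exposure: 48 hours, 5 concentrations, 96-well plates. GI50 is the concentration that inhibits growth by half. Definition used: TGI = concentration required for complete inhibition of growth.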

Consider `O=C(N/N=C/c1coc2ccc(Cl)cc2c1=O)c1ccncc1`, for which the GI50 in the assay on ACHN renal was 29.9 µM; with HCC-2998 colon, 30.3 µM; in the assay with HCT-116 colon, 40300 nM; in the assay with LOX IMVI melanoma, 38600 nM; with MDA-MB-435, 73000 nM; with OVCAR-3 ovarian it was 68.5 µM. The GI50 in the assay with OVCAR-5 ovarian is over 100 µM; with SW-620 colon, over 100000 nM; with TK-10 renal it was 17.2 µM; in the assay with UACC-257 melanoma, 56800 nM. For the same compound, the TGI is over 100 µM with ACHN renal; 72.3 µM in the assay on HCC-2998 colon; over 100 µM in the assay with HCT-116 colon; over 100 µM with LOX IMVI melanoma; over 100 µM in the assay on MDA-MB-435; over 100 µM in the assay with OVCAR-3 ovarian. Moreover, the TGI in the assay on OVCAR-5 ovarian was over 100 µM; in the assay on SW-620 colon, over 100 µM; with TK-10 renal, 52.5 µM; in the assay with UACC-257 melanoma, over 100 µM.
Consider `CC1(C)CC(=O)C2=C(C1)NC(SSC1=C(C#N)C(c3ccc(Br)cc3)C3=C(CC(C)(C)CC3=O)N1)=C(C#N)C2c1ccc(Br)cc1` (stereo not given), for which the GI50 was over 150 µg/mL in the assay with ACHN renal; over 150 µg/mL with HCC-2998 colon; 89.8 µg/mL with HCT-116 colon; 22.9 µg/mL in the assay with LOX IMVI melanoma; 90.8 µg/mL in the assay with MDA-MB-435; over 150 µg/mL in the assay on OVCAR-3 ovarian. The GI50 in the assay on OVCAR-5 ovarian was over 150 µg/mL; with SW-620 colon, 29.3 µg/mL; in the assay with TK-10 renal, over 150 µg/mL; in the assay on UACC-257 melanoma, over 150 µg/mL. For the same compound, the TGI with ACHN renal was > 100 µM and 150 µg/mL; with HCC-2998 colon it was 150 µg/mL; in the assay on HCT-116 colon it was > 100 µM and 150 µg/mL; in the assay on LOX IMVI melanoma, > 100 µM and 46.6 µg/mL; in the assay with MDA-MB-435, > 100 µM and 150 µg/mL; in the assay on OVCAR-3 ovarian, > 100 µM and 150 µg/mL. Moreover, the TGI in the assay with OVCAR-5 ovarian is > 100 µM and 150 µg/mL; in the assay with SW-620 colon, > 100 µM and 56.1 µg/mL; in the assay on TK-10 renal, > 100 µM and 150 µg/mL; with UACC-257 melanoma, > 100 µM and 150 µg/mL.
As for `Fc1ccc(-c2ncn(C3CCNCC3)c2-c2ccnc(Oc3ccccc3)n2)cc1`, the GI50 is 7.22 µM with ACHN renal; 12.8 µM in the assay on HCC-2998 colon; 14800 nM with HCT-116 colon; over 15800 nM in the assay on LOX IMVI melanoma; 17800 nM in the assay on MDA-MB-435; over 25 µM in the assay with OVCAR-3 ovarian. Also, the GI50 in the assay on OVCAR-5 ovarian was 22.3 µM; in the assay with SW-620 colon, over 25000 nM; in the assay on TK-10 renal, 21.2 µM; in the assay with UACC-257 melanoma, 12500 nM. Also, the TGI with ACHN renal, in the assay with HCC-2998 colon, with HCT-116 colon, in the assay with LOX IMVI melanoma, in the assay on MDA-MB-435 and with OVCAR-3 ovarian was over 25 µM each time. The TGI in the assay with OVCAR-5 ovarian, with SW-620 colon, with TK-10 renal and in the assay on UACC-257 melanoma was over 25 µM in each case.
As to `Nc1ncnc2c1c(-c1cccc(OCc3ccccc3)c1)cn2C1CC(CN2CCCC2)C1` (stereo not given), the GI50 in the assay on ACHN renal is 2.93 µM; with HCC-2998 colon, 2 µM; in the assay with HCT-116 colon it was 1380 nM; with LOX IMVI melanoma, 1520 nM; in the assay on MDA-MB-435, 1290 nM; in the assay with OVCAR-3 ovarian, 4.06 µM. The GI50 with OVCAR-5 ovarian is 0.705 µM; with SW-620 colon, 1030 nM; with TK-10 renal it was 1.84 µM; in the assay on UACC-257 melanoma, 867 nM. The TGI turned out to be 11 µM with ACHN renal; 6.13 µM in the assay on HCC-2998 colon; 5.34 µM with HCT-116 colon; 3 µM in the assay on LOX IMVI melanoma; 3.08 µM in the assay on MDA-MB-435; 14.9 µM with OVCAR-3 ovarian. Moreover, the TGI in the assay with OVCAR-5 ovarian was 6.82 µM; in the assay with SW-620 colon, 3.53 µM; in the assay on TK-10 renal it was 5.05 µM; in the assay on UACC-257 melanoma, 2.18 µM.
On to `CCCn1cc(C2=C(c3cn(C)c4ccccc34)C(=O)NC2=O)c2ccccc21`, for which the GI50 in the assay on ACHN renal is 2.04 µM; in the assay with HCC-2998 colon, 4.85 µM; in the assay on HCT-116 colon, 1240 nM; with LOX IMVI melanoma it was 2410 nM; in the assay on MDA-MB-435, 99.2 nM; in the assay on OVCAR-3 ovarian, 0.596 µM. The GI50 was 6.76 µM in the assay on OVCAR-5 ovarian, 968 nM in the assay on SW-620 colon, 3.45 µM with TK-10 renal and 1800 nM with UACC-257 melanoma. Moreover, the TGI with ACHN renal was 7.45 µM; with HCC-2998 colon, over 25 µM; with HCT-116 colon, 8.52 µM; with LOX IMVI melanoma, 11.2 µM; with MDA-MB-435, 0.691 µM; in the assay on OVCAR-3 ovarian, 2.35 µM. Besides, the TGI in the assay on OVCAR-5 ovarian was over 25 µM; in the assay on SW-620 colon, over 25 µM; in the assay on TK-10 renal, 22 µM; with UACC-257 melanoma, over 25 µM.
With `COc1ccc(-c2cn(-c3ccc(Cl)cc3)c(=S)[nH]2)cc1OC`, the GI50 in the assay on ACHN renal is 9.53 µM; in the assay on HCC-2998 colon, 56.2 µM; with HCT-116 colon, 3960 nM; in the assay with LOX IMVI melanoma it was 1520 nM; in the assay on MDA-MB-435, over 100000 nM; in the assay on OVCAR-3 ovarian it was 47.2 µM. For the same compound, the GI50 with OVCAR-5 ovarian was 4.58 µM; in the assay with SW-620 colon, over 100000 nM; with TK-10 renal, 12.1 µM; in the assay on UACC-257 melanoma it was over 100000 nM. In addition, the TGI in the assay with ACHN renal was over 100 µM; in the assay on HCC-2998 colon it was over 100 µM; in the assay on HCT-116 colon, over 100 µM; in the assay on LOX IMVI melanoma, 3.11 µM; in the assay on MDA-MB-435 it was over 100 µM; in the assay on OVCAR-3 ovarian, over 100 µM. Besides, the TGI in the assay with OVCAR-5 ovarian, with SW-620 colon, in the assay with TK-10 renal and in the assay on UACC-257 melanoma was over 100 µM in each case.
For the compound `COc1ccc2nc3cccc([N+](=O)[O-])c3c(NCCN(CCO)CCO)c2c1`, the GI50 is 0.0142 µM in the assay on ACHN renal; 0.0137 µM with HCC-2998 colon; 15.4 nM in the assay with HCT-116 colon; 37.9 nM with LOX IMVI melanoma; 17.5 nM in the assay with MDA-MB-435; 0.0187 µM with OVCAR-3 ovarian. In addition, the GI50 is 0.0291 µM in the assay with OVCAR-5 ovarian, 13.9 nM in the assay on SW-620 colon, 0.0307 µM in the assay with TK-10 renal and 24.8 nM in the assay on UACC-257 melanoma. Also, the TGI in the assay with ACHN renal came to 0.0495 µM; in the assay with HCC-2998 colon, 0.0331 µM; in the assay on HCT-116 colon, 0.607 µM; with LOX IMVI melanoma, 0.18 µM; in the assay on MDA-MB-435, 0.0406 µM; with OVCAR-3 ovarian it was 0.0501 µM. The TGI worked out at 0.138 µM with OVCAR-5 ovarian, 0.619 µM in the assay with SW-620 colon, 0.229 µM in the assay with TK-10 renal and 0.0599 µM in the assay on UACC-257 melanoma.
